Laboratory results reported in ChEMBL document CHEMBL3301361, “Experimental in vitro DMPK and physicochemical data on a set of publicly disclosed compounds”.
≈ marks a conversion by molar mass, not a printed value.

Key:
physchem [1] = test: physchem
in vitro [2] = details: human, plasma
in vitro [3] = details: SD, HW or BN, rat, plasma
in vitro [4] = details: hepatocytes
in vitro [5] = details: human
in vitro [6] = details: human, hepatocytes
physchem [7] = details: pH 7.4 buffer
physchem [8] = details: octan-1-ol/water

Structure (SMILES) | pKa (physchem [1]) | fraction unbound at 5 h (in vitro [2]; PPB) | fraction unbound at 5 h (in vitro [3]) | hepatocyte CLint (in vitro [4]) | hepatocyte CLint (in vitro [6]) | other results
Cc1ncc[nH]1 | 7.8 | – | – | – | – | –
CC(C)(C)NS(=O)(=O)c1cncc(-c2ccc3nc(NC(=O)NCC(=O)N4CCCC4)nn3c2)c1 | – | 0.329 | 0.232 | < 3 µL/min/1e6 cells | 4.79 µL/min/1e6 cells | microsomal CLint (in vitro [5]; microsomes): 5 µL/min/mg; solubility thermodynamic (physchem [7]): 6.6 µM (≈ 3.3 µg/mL); logD (physchem [8]; pH 7.4, LogD7.4): 1.37
Cc1nn(-c2ccc(F)cc2)c(NS(=O)(=O)c2ccc(C#N)cc2)c1C(=O)N[C@@H](C)C(C)(C)C | – | 0.0437 | 0.0801 | 6 µL/min/1e6 cells | < 3 µL/min/1e6 cells | logD (physchem [8]; pH 7.4, LogD7.4): 0.45
CC(C)NCC(O)COc1ccc(CCOCC2CC2)cc1 (stereo not given) [BETAXOLOL] | – | 0.725 | 0.409 | 12 µL/min/1e6 cells | < 3 µL/min/1e6 cells | microsomal CLint (in vitro [5]; microsomes): < 3 µL/min/mg
Cc1c(C)c2c(c(C)c1O)CCC(C)(COc1ccc(CC3SC(=O)NC3=O)cc1)O2 (stereo not given) [TROGLITAZONE] | – | 0.0009 | – | > 150 µL/min/1e6 cells | 28.2 µL/min/1e6 cells | microsomal CLint (in vitro [5]; liver microsomes): 49 µL/min/mg
O=C(c1ccccc1)N1CCN(Cc2ccccc2)CC1 | 6.2 | – | – | – | – | –
COc1ccc(CNc2cc(C)ccn2)c(O)c1 | 6.8 | – | – | – | – | –
NC1=Nc2cccc3cccc(c23)N1 | 7.6 | – | – | – | – | –
CCOC(=O)N1CCC2(CC1)N=C(N)c1c(Cl)cccc1N2 | 9 | – | – | – | – | –
NC(=O)NC(=O)C(Nc1ccc2c(c1)CCC2)c1ccccc1 (stereo not given) | – | – | 0.0581 | 55 µL/min/1e6 cells | 13.8 µL/min/1e6 cells | fraction unbound at 5 h (in vitro [2]): 0.03; microsomal CLint (in vitro [5]; liver microsomes): 27.5 µL/min/mg; logD (physchem [8]; pH 7.4): 3.3
COc1ccc(OC)c(C(O)CNC(=O)CN)c1 (stereo not given) [MIDODRINE] | 7.59 | – | – | – | – | –
Cc1nc2c(OCc3ccccc3)cccn2c1CC#N | 5.6 | – | – | – | – | –
C[C@]12CCC(=O)C=C1C=C[C@@H]1[C@@H]2CC[C@@]2(C)[C@H]1CC[C@@]21CCC(=O)O1 [CANRENONE] | – | 0.0594 | 0.0383 | 45.7 µL/min/1e6 cells | 6.61 µL/min/1e6 cells | microsomal CLint (in vitro [5]; liver microsomes): 14.4 µL/min/mg; logD (physchem [8]; pH 7.4, LogD7.4): 3.2
O=C1COC2(CCN(S(=O)(=O)c3ccc(-c4ccc5cnccc5c4)cc3)CC2)CN1C1CC1 | – | 0.0018 | – | > 150 µL/min/1e6 cells | > 150 µL/min/1e6 cells | microsomal CLint (in vitro [5]; liver microsomes): 115 µL/min/mg; solubility thermodynamic (physchem [7]): 2.2 µM (≈ 1.05 µg/mL); logD (physchem [8]; pH 7.4, LogD7.4): 3.32
C[C@H](Oc1ccc(Cl)cc1CN1CCN(C(=O)Cc2ccc(Cl)cc2)[C@@H](C)C1)C(=O)O | – | – | – | < 3 µL/min/1e6 cells | 4.7 µL/min/1e6 cells | fraction unbound at 5 h (in vitro [2]): 0.0256; microsomal CLint (in vitro [5]; liver microsomes): < 3 µL/min/mg
COc1ccc2c3c1O[C@H]1C[C@@H](O)C=C[C@@]31CCN(C)C2 [GALANTAMINE] | 8.21 | – | – | – | – | –
c1ccc(CSc2nnc([C@@H]3CCCN3)o2)cc1 | 7.03 | – | – | – | – | –
CCOC(=O)N1CCC2(CC1)N=C(N)c1c(F)cccc1N2 | 9.1 | – | – | – | – | –
COc1cccc2c1c(NS(=O)(=O)c1ccc(Cl)s1)nn2Cc1cccc(CNC(=O)[C@@H]2COCCN2)c1 | – | 0.016 | 0.0156 | 26 µL/min/1e6 cells | 20 µL/min/1e6 cells | microsomal CLint (in vitro [5]; microsomes): 40.5 µL/min/mg; solubility thermodynamic (physchem [7]): 27.5 µM (≈ 15.8 µg/mL); logD (physchem [8]; pH 7.4, LogD7.4): 1.61
CN1CCN(c2nc3ccccc3cc2Cn2nc(-c3ccc4nc(N)sc4c3)c3c(N)ncnc32)CC1 | – | – | – | 81 µL/min/1e6 cells | 7.59 µL/min/1e6 cells | microsomal CLint (in vitro [5]; liver microsomes): 72 µL/min/mg; solubility thermodynamic (physchem [7]): 100 µM (≈ 52.3 µg/mL); logD (physchem [8]; pH 7.4, LogD7.4): 3.09
Cc1cc(C(C)(C)C)cc(C)c1CC1=NCCN1 [XYLOMETAZOLINE] | 10.6 | – | – | – | – | –
Cc1nc(N)sc1C | 6.3 | – | – | – | – | –
CCN(CC)CCNC(=O)c1ccc(NC(C)=O)cc1 [ACECAINIDE] | 9.14 | – | – | – | – | –
NC1=NC(c2ccc(F)cc2)Nc2cccc(F)c21 (stereo not given) | 9 | – | – | – | – | –

Structure (SMILES) | pKa (physchem [1]) | fraction unbound at 5 h (in vitro [2]; PPB) | fraction unbound at 5 h (in vitro [3]) | hepatocyte CLint (in vitro [4]) | hepatocyte CLint (in vitro [6]) | other results
O=C(Cc1ccc(Cl)c(C(F)(F)F)c1)Nc1cccc2c(=O)n(CCO)ccc12 | – | 0.0097 | 0.072 | 11 µL/min/1e6 cells | 32 µL/min/1e6 cells | microsomal CLint (in vitro [5]; liver microsomes): < 3 µL/min/mg
C[C@H]1CN(Cc2cc(Cl)ccc2OCC(=O)O)CCN1C(=O)Cc1ccc(F)cc1 | – | – | 0.0928 | < 3 µL/min/1e6 cells | < 3 µL/min/1e6 cells | fraction unbound at 5 h (in vitro [2]): 0.0287; microsomal CLint (in vitro [5]; microsomes): < 3 µL/min/mg
NC1=NC(C2CC2)Cc2ccsc21 (stereo not given) | > 11 | – | – | – | – | –
NCCc1ccc(Cl)cc1 | 10.1 | – | – | – | – | –
Cc1ccc(C#N)c(S[C@H](CCN)c2ccccc2)n1 | 9.8 | – | – | – | – | –
c1ccc(CC2=NCCN2)cc1 [TOLAZOLINE] | 10.7 | – | – | – | – | –
Cc1ccnc(NCc2c(O)ccc3ccccc23)c1 | 6.6 | – | – | – | – | –
O=C(O)/C=C/c1cccnc1 | 4.4 | – | – | – | – | –
CN(C(=O)Cc1ccc(S(=O)(=O)N(C)C)cc1)C1CCN(CCC(c2ccccc2)c2ccccc2)CC1 | 8.1 | – | – | – | – | –
NCCc1ccc([N+](=O)[O-])cc1 | 9.4 | – | – | – | – | –
O=C(NCC1(O)CCCCCC1)c1cc(-n2ncc(=O)[nH]c2=O)ccc1Cl | – | 0.24 | 0.129 | < 3 µL/min/1e6 cells | < 3 µL/min/1e6 cells | microsomal CLint (in vitro [5]; liver microsomes): < 3 µL/min/mg; logD (physchem [8]; pH 7.4, LogD7.4): 0.26
COc1cccc2c1c(NS(=O)(=O)c1ccc(Cl)s1)nn2Cc1cccc(CNC(=O)[C@H]2COCCN2)c1 | – | 0.0156 | 0.0052 | 28 µL/min/1e6 cells | 16 µL/min/1e6 cells | microsomal CLint (in vitro [5]; microsomes): 58.5 µL/min/mg
O=C1Nc2ccc(Cl)cc2C(c2ccccc2Cl)=NC1O (stereo not given) [LORAZEPAM] | – | – | – | 17.4 µL/min/1e6 cells | 4.57 µL/min/1e6 cells | fraction unbound at 5 h (in vitro [2]): 0.072; microsomal CLint (in vitro [5]; liver microsomes): 7.94 µL/min/mg; solubility thermodynamic (physchem [7]): 178 µM (≈ 57.1 µg/mL)
O=C(O)C[C@H]1CC[C@H](c2ccc(-c3ccc(Nc4ccc(C(F)(F)F)nc4)cn3)cc2)CC1 | – | – | – | 11.5 µL/min/1e6 cells | < 3 µL/min/1e6 cells | microsomal CLint (in vitro [5]; liver microsomes): < 3 µL/min/mg; solubility thermodynamic (physchem [7]): 1.1 µM (≈ 0.501 µg/mL); logD (physchem [8]; pH 7.4, LogD7.4): 3.8
O=C(N[C@H](Cc1ccc(Cl)cc1)C(=O)N1CCC(Cn2cncn2)(C2CCCCC2)CC1)[C@H]1Cc2ccccc2CN1 | – | 0.007 | 0.0052 | 40.7 µL/min/1e6 cells | 27.5 µL/min/1e6 cells | –
CC(C)(C)NS(=O)(=O)c1cncc(-c2ccc3nc(NC(=O)NCC(=O)N4CCOCC4)nn3c2)c1 | – | – | 0.535 | 5 µL/min/1e6 cells | 3.39 µL/min/1e6 cells | microsomal CLint (in vitro [5]; liver microsomes): 5 µL/min/mg; solubility thermodynamic (physchem [7]): 53.7 µM (≈ 27.7 µg/mL); logD (physchem [8]; pH 7.4, LogD7.4): 0.96
O=c1[nH]c2c(O)ccc([C@@H](O)CNCCSCCCNCCc3ccccc3)c2s1 | – | – | – | 9 µL/min/1e6 cells | < 3 µL/min/1e6 cells | microsomal CLint (in vitro [5]; liver microsomes): 5 µL/min/mg; solubility thermodynamic (physchem [7]): 1150 µM (≈ 514 µg/mL); logD (physchem [8]; pH 7.4, LogD7.4): 0.12
O=C(c1ccc(F)cc1)C1CCN(CCn2c(=O)[nH]c3ccccc3c2=O)CC1 [KETANSERIN] | – | 0.0968 | 0.0064 | 24.6 µL/min/1e6 cells | 30.2 µL/min/1e6 cells | –
O=c1c2sccc2n(CC2COc3ccccc3O2)c(=O)n1O (stereo not given) | – | – | – | 14.8 µL/min/1e6 cells | 135 µL/min/1e6 cells | microsomal CLint (in vitro [5]; liver microsomes): < 3 µL/min/mg; solubility thermodynamic (physchem [7]): 120 µM (≈ 39.9 µg/mL); logD (physchem [8]; pH 7.4, LogD7.4): 1.44
O=C(CO)N1CCC(c2[nH]nc(-c3ccc(Cl)cc3F)c2-c2ccncn2)CC1 | – | 0.253 | 0.324 | < 3 µL/min/1e6 cells | < 3 µL/min/1e6 cells | microsomal CLint (in vitro [5]; microsomes): < 3 µL/min/mg; solubility thermodynamic (physchem [7]): 7.8 µM (≈ 3.24 µg/mL); logD (physchem [8]; pH 7.4, LogD7.4): 1.79
Cc1ccccc1-n1c(Cn2nc(-c3ccc(O)c(F)c3)c3c(N)ncnc32)nc2cccc(C)c2c1=O | – | 0.02 | 0.0313 | 44.7 µL/min/1e6 cells | 39.8 µL/min/1e6 cells | solubility thermodynamic (physchem [7]): 25.1 µM (≈ 12.7 µg/mL); logD (physchem [8]; pH 7.4, LogD7.4): 3.55
Cc1ccc(C)c(OCCCC(C)(C)C(=O)O)c1 [GEMFIBROZIL] | – | 0.0023 | 0.0153 | > 150 µL/min/1e6 cells | 66.1 µL/min/1e6 cells | microsomal CLint (in vitro [5]; microsomes): 29.5 µL/min/mg; logD (physchem [8]; pH 7.4, LogD7.4): 0.72
Cc1cc(F)ccc1-n1nc(C(F)(F)F)cc1-c1ccc2c(c1)NC(=O)CO2 | – | – | 0.19 | 28.2 µL/min/1e6 cells | 10.7 µL/min/1e6 cells | microsomal CLint (in vitro [5]; liver microsomes): 14.4 µL/min/mg
